Assay [1] deals with T1, Neuropeptide Y receptor type 1 (Homo sapiens, UniProt P25929).
T1 sequence (P25929 whole entry): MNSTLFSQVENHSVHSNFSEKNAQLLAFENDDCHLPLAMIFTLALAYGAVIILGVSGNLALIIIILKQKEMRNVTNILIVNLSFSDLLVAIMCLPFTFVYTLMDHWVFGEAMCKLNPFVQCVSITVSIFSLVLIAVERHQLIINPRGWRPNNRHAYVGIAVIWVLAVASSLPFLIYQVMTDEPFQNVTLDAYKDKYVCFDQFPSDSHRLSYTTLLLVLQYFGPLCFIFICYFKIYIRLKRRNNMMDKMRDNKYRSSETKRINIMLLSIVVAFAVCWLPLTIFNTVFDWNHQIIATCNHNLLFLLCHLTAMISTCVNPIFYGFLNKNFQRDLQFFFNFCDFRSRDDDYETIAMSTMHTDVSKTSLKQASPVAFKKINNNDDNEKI
Kind of assay: Binding affinity against human recombinant NPY Y1 receptor in CHO/dhFr- cell membranes using [125I]PYY.

The test system of assay [2] is CHO. Kind of assay: Inhibitory concentration against 1 nM NPY induced [Ca2+] increase in CHO/dhFr- cells expressing recombinant human Y1 receptor. It counts as functional, cell-based. The conditions noted are these: Cricetulus griseus.

The IC50 is the point on the concentration scale where inhibition reaches its midpoint.

As to `CCc1sc(CCc2cc(OCC(C)(C)C)cc(NCc3cc(Cl)cc(NC(=O)OC(C)C)c3)n2)nc1C`, in assay [1], the IC50 came to 55 nM. As for `CCc1sc(CCc2cc(OCCCc3ccccc3)cc(NCc3cc(Cl)cc(NC(=O)OC(C)C)c3)n2)nc1C`, the IC50 in assay [1] was 20 nM. Consider `CCc1sc(CCc2cc(OCCc3ccccc3)cc(NCc3cc(Cl)cc(NC(=O)OC(C)C)c3)n2)nc1C`, for which the IC50 in assay [1] worked out at 30 nM. Turning to `CCCCCOc1cc(CCc2nc(C)c(CC)s2)nc(NCc2cc(Cl)cc(NC(=O)OC(C)C)c2)c1`, the IC50 in assay [1] is 35 nM. With `CCOc1cc(CCc2nc(C)c(CC)s2)nc(NCc2cc(Cl)cc(NC(=O)OC(C)C)c2)c1`, the IC50 in assay [1] was found to be 33 nM.

Regarding `CCCOc1cc(CCc2nc(C)c(CC)s2)nc(NCc2cc(Cl)cc(NC(=O)OC(C)C)c2)c1`, the IC50 in assay [1] was determined as 17 nM. As to `CCCCCCCOc1cc(CCc2nc(C)c(CC)s2)nc(NCc2cc(Cl)cc(NC(=O)OC(C)C)c2)c1`, the half-maximal inhibitory concentration (IC50) in assay [1] worked out at 72 nM. In the case of `CCc1sc(CCc2cc(OCCCc3cccnc3)cc(NCc3cc(Cl)cc(NC(=O)OC(C)C)c3)n2)nc1C`, the IC50 in assay [2] was determined as 46 nM; in assay [1] it was 6.5 nM. As to `CCc1sc(CCc2cc(OCC3(C)CC3)cc(NCc3cc(Cl)cc(NC(=O)OC(C)C)c3)n2)nc1C`, the 50% inhibitory concentration (IC50) in assay [1] was 17 nM. Regarding `CC/C=C\CCOc1cc(CCc2nc(C)c(CC)s2)nc(NCc2cc(Cl)cc(NC(=O)OC(C)C)c2)c1`, the 50% inhibitory concentration (IC50) in assay [2] worked out at 64 nM; in assay [1], 4.7 nM.

As to `CCc1sc(CCc2cc(OC3CCCC3)cc(NCc3cc(Cl)cc(NC(=O)OC(C)C)c3)n2)nc1C`, the IC50 in assay [1] came out at 11 nM.

Turning to `CCCCOc1cc(CCc2nc(C)c(CC)s2)nc(NCc2cc(Cl)cc(NC(=O)OC(C)C)c2)c1`, the IC50 in assay [1] was 16 nM. On to `CCc1sc(CCc2cc(OCc3ccccc3)cc(NCc3cc(Cl)cc(NC(=O)OC(C)C)c3)n2)nc1C`, for which, in assay [1], the IC50 is 237 nM. Consider `CCc1sc(CCc2cc(OC3CCOCC3)cc(NCc3cc(Cl)cc(NC(=O)OC(C)C)c3)n2)nc1C`, for which the IC50 in assay [2] was 42 nM; in assay [1] it was 4.4 nM. As to `CCc1sc(CCc2cc(OC(CC)CC)cc(NCc3cc(Cl)cc(NC(=O)OC(C)C)c3)n2)nc1C`, the 50% inhibitory concentration (IC50) in assay [2] came to 33 nM; in assay [1], 5.5 nM.

For the compound `CCc1sc(CCc2cc(OC)cc(NCc3cc(Cl)cc(NC(=O)OC(C)C)c3)n2)nc1C`, the IC50 in assay [1] was 234 nM. On to `CCc1sc(CCc2cc(OC3CCC3)cc(NCc3cc(Cl)cc(NC(=O)OC(C)C)c3)n2)nc1C`, for which, in assay [1], the IC50 was 11 nM. Consider `CCCCCCOc1cc(CCc2nc(C)c(CC)s2)nc(NCc2cc(Cl)cc(NC(=O)OC(C)C)c2)c1`, for which the IC50 in assay [1] was 63 nM.

As for `CCc1sc(CCc2cc(N3CCOCC3)cc(NCc3cc(Cl)cc(NC(=O)OC(C)C)c3)n2)nc1C`, the half-maximal inhibitory concentration (IC50) in assay [2] amounted to 2.9 nM; in assay [1] it was 1.4 nM.

In the case of `CCc1sc(CCc2cc(OC(C)COC)cc(NCc3cc(Cl)cc(NC(=O)OC(C)C)c3)n2)nc1C` (stereo not drawn), the 50% inhibitory concentration (IC50) in assay [2] came to 59 nM; in assay [1], 8.4 nM. As for `CCc1sc(CCc2cc(OC(C)C)cc(NCc3cc(Cl)cc(NC(=O)OC(C)C)c3)n2)nc1C`, the half-inhibitory concentration (IC50) in assay [1] came to 12 nM. As to `CCc1sc(CCc2cc(OC3CCCCC3)cc(NCc3cc(Cl)cc(NC(=O)OC(C)C)c3)n2)nc1C`, in assay [1], the 50% inhibitory concentration (IC50) is 29 nM.

For the origin of these results see ChEMBL document CHEMBL1149225, “Synthesis and evaluation of substituted 4-alkoxy-2-aminopyridines as novel neuropeptide Y1 receptor antagonists” (Bioorg Med Chem Lett, 2004).
